{
  "source": "paper PMC12429880",
  "about": "“EGFR-Targeted Photodynamic Treatment of Triple Negative Breast Cancer Cell Lines Using Porphyrin–Peptide Conjugates: Synthesis and Mechanistic Insight” (Molecules, 2025)",
  "key": {"[1]": {"test": "Photostability (photobleaching) under irradiation", "type": "physicochemical", "from_the_text": "Compounds incorporating photosensitizing chromophores, such as tetrapyrrolic macrocycles, are susceptible to ROS-mediated photodegradation upon irradiation. Photostability of PSs is a critical parameter for achieving safe, effective, and precise PDT. It ensures sustained generation of ROS, minimizes the formation of potentially toxic or mutagenic degradation products, and preserves the structural and photophysical integrity of the PS during systemic circulation and tumor accumulation. High photostability is particularly important in delayed-activation protocols, enabling selective localization in target tissues. […] Thus, before assessing the photodynamic activity of the conjugates in TNBC cell lines, the photostability of 2 and conjugates 6, 7, and 8 was evaluated under the same conditions employed for the cell viability assays and the other biological studies reported in the present study. […]\nTo assess whether the peptide moiety underwent photoinduced degradation, samples of porphyrin 2 and its conjugates 6–8 were recovered and analyzed by HPLC at the end of the irradiation period.\nFor the chemical and biological analyses a 500 W tungsten white halogen lamp was used. […] The lamp has an irradiance of 22 mW/cm^2 (an average value determined between 380 and 780 nm with a Licor-1800 spectroradiometer, Li-COR, Bad Homburg, Germany), equating to 158 J/cm^2 of fluence over 2 h. […]"}, "[2]": {"test_system": "MCF7", "test": "Intrinsic (dark) cytotoxicity, MTT assay without photoactivation", "type": "cell-based", "conditions": "no photoactivation, ten times the maximum PDT concentration (10 µM), mean ± SD of 5 independent experiments, in % (unit assumed)", "experimental": "(§1) The photodynamic effect of conjugates 6–8 on cell viability, compared to the reference compound 2, was evaluated using the MTT ([3-(4,5-dimethylthiazol-2-yl)-2,5-diphenyltetrazolium bromide]) assay. Briefly, 3.5 × 10^3 cells per well were seeded in 96-well plates and incubated for 48 h to allow for adherence and growth. Following this incubation period, cells were treated with increasing concentrations of the test compounds (ranging from 1 to 1000 nM), prepared in complete culture medium. All compound dilutions were prepared to ensure a final DMSO concentration of 0.1% (v/v), which is considered non-toxic. Control samples included cells cultured in complete medium alone, as well as a vehicle control treated with 0.1% DMSO in the absence of any compound (PS treatment was omitted). 24 h after treatment with PS, the medium was replaced with 1X PBS. Photoactivation was performed using a 500 W white tungsten halogen lamp, delivering an irradiance of 22 mW/cm^2, corresponding to a total fluence of 158 J/cm^2 over a 2 h irradiation period. To prevent thermal damage from the light source, a cooling system was employed by placing a circulating water filter between the lamp and the irradiation area to dissipate excess heat. Following irradiation, the PBS was replaced with fresh, PS-free culture medium, and cells were incubated at 37 °C. 24 h later, MTT was added to each well at a final concentration of 0.4 mg/mL, and cells were incubated for 3 h at 37 °C to allow the MTT metabolization in viable cells. The resulting formazan crystals were then dissolved in DMSO. Optical density was measured at 590 nm using an Infinite® 200 PRO plate reader (Tecan Life Sciences, Switzerland), and the resulting data were analyzed by non-linear regression using GraphPad PRISM 9.2.0 software (GraphPad Software Inc., San Diego, CA, USA), and IC50 values were extrapolated from these curves.\n(§2) The potential intrinsic cytotoxicity of the compounds was assessed under identical experimental conditions, except that the photoactivation step was omitted. […]"}, "[3]": {"test_system": "MDA-MB231", "test": "Intrinsic (dark) cytotoxicity, MTT assay without photoactivation", "type": "cell-based", "conditions": "no photoactivation, ten times the maximum PDT concentration (10 µM), mean ± SD of 5 independent experiments, in % (unit assumed)", "experimental": "as §1, §2"}, "[4]": {"test_system": "MDA-MB453", "test": "Intrinsic (dark) cytotoxicity, MTT assay without photoactivation", "type": "cell-based", "conditions": "no photoactivation, ten times the maximum PDT concentration (10 µM), mean ± SD of 5 independent experiments, in % (unit assumed)", "experimental": "as §1, §2"}, "[5]": {"test_system": "MDA-MB231", "test": "Intracellular ROS generation (DCFH-DA)", "type": "cell-based", "conditions": "24 h at IC50, 2 h irradiation with 10 μM DCFH-DA, 3 independent experiments", "experimental": "(§3) Intracellular ROS generation was assessed using the fluorogenic probe 2′,7′-dichlorodihydrofluorescein diacetate (DCFH-DA; Invitrogen, Molecular Probes). Once internalized, DCFH-DA is hydrolyzed by intracellular esterases to form non-fluorescent dichlorodihydrofluorescein (DCFH), which ROS subsequently oxidizes to the highly fluorescent dichlorofluorescein (DCF). MDA-MB453 and MDA-MB231 cells were seeded in black 96-well plates and treated with the respective PSs at their IC50 concentrations for 24 h. Cells were then irradiated in the presence of 10 μM DCFH-DA. To quantify ROS production, fluorescence intensity was measured using a fluorescence microscope (excitation: 488 nm; emission: 520 nm). Quantitative analysis of fluorescence intensity, expressed in arbitrary fluorescence units, was performed using ImageJ software, version 1.53e, and normalized to untreated control samples."}, "[6]": {"test_system": "MDA-MB453", "test": "Intracellular ROS generation (DCFH-DA)", "type": "cell-based", "conditions": "24 h at IC50, 2 h irradiation with 10 μM DCFH-DA, 3 independent experiments", "experimental": "as §3"}},
  "data": [
    {"smiles": "COC(=O)c1ccc(-c2c3nc(c([N+](=O)[O-])c4ccc([nH]4)c(-c4ccc(C(=O)OC)cc4)c4nc(cc5ccc2[nH]5)C=C4)C=C3)cc1", "note": "[compound 2, 10-Nitro-5,15-bis(4-carbomethoxyphenyl)porphyrin]", "values": [
      {"measurement": "Soret band intensity retained after irradiation", "setting": "[1]; 10 μM in PBS, 2 h exposure to 500 W tungsten-halogen lamp, 22 mW/cm^2, 158 J/cm^2, UV-Vis", "value": "approximately 90%"},
      {"measurement": "HPLC analysis at the end of the irradiation period (structural integrity)", "setting": "[1]; after 2 h irradiation with 500 W tungsten-halogen lamp, HPLC", "value": "No shifts in retention times were observed"},
      {"measurement": "Survival fraction (dark toxicity)", "setting": "[2]", "value": "89.7 ± 1.16"},
      {"measurement": "Survival fraction (dark toxicity)", "setting": "[3]", "value": "91.2 ± 1.26"},
      {"measurement": "Survival fraction (dark toxicity)", "setting": "[4]", "value": "90.8 ± 0.66"},
      {"measurement": "Intracellular ROS levels", "setting": "[5]", "value": "higher levels of intracellular ROS"},
      {"measurement": "Intracellular ROS levels", "setting": "[6]", "value": "higher levels of intracellular ROS"}
    ]}
  ]
}
